One assay deals with T1, TCF4-CTNNB1 complex (Homo sapiens, UniProt P35222).
T1 sequence (P35222 whole entry): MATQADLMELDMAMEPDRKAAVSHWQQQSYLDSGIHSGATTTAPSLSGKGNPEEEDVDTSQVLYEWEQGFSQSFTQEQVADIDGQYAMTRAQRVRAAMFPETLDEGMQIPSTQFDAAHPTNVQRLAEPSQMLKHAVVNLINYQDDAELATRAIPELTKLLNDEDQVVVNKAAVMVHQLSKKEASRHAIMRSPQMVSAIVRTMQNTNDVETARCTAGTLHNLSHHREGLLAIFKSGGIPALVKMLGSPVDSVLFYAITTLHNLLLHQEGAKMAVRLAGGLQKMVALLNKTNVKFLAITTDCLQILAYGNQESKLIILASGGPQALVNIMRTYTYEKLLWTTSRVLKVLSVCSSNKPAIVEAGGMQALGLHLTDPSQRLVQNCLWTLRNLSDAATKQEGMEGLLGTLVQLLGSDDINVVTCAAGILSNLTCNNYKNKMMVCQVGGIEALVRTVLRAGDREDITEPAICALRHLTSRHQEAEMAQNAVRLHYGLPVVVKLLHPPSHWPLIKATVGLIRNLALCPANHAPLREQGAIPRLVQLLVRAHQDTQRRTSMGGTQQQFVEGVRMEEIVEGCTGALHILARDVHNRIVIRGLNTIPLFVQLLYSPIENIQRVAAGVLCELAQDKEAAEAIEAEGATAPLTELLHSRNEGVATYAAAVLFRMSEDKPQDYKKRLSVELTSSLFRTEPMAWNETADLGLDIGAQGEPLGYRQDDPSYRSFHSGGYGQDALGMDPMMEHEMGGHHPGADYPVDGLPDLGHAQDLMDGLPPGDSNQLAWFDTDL
T1 sequence (P15884 whole entry): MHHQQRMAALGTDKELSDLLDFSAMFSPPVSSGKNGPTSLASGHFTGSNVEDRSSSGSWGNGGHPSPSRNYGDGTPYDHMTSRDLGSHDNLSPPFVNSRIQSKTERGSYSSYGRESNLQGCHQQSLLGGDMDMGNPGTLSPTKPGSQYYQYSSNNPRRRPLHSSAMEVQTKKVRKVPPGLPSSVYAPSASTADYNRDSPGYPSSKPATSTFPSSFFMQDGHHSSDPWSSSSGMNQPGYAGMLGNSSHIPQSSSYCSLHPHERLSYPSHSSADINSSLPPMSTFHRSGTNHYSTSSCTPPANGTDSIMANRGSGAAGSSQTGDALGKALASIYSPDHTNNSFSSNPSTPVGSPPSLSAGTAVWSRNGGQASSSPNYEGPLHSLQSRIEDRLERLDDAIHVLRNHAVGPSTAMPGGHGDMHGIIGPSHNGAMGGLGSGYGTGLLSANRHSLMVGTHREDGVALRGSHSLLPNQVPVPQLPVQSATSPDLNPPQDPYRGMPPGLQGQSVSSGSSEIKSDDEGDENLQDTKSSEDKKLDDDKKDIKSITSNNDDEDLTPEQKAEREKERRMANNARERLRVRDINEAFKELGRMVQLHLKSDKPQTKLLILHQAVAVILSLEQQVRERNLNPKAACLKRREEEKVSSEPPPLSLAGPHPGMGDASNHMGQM
As to the kind of experiment: Inhibition of His-tagged beta-catenin (134 to 668 residues)/CM-5 sensor chip immobilized N-terminal GST-tagged TCF4 interaction (unknown origin) preincubated with beta-catenin for 15 mins followed by TCF4 addition measured after 60 secs by SPR analysis. It counts as protein-complex assay. Background: SPR reads the build-up and loss of mass on a sensor chip optically.

Assay [1] can be described thus: Antiproliferative activity against human LNCaP-abl cells assessed as inhibition of cell proliferation incubated for 5 days by Cell Titer-Fluor assay. It counts as functional, cell-based. Conditions: 120 h.
A short description of assay [2]: Antiproliferative activity against human LNCaP-95 cells assessed as inhibition of cell proliferation incubated for 5 days by Cell Titer-Fluor assay. It counts as functional, cell-based. Conditions: LNCaP-95, 120 h.
Assay [3] in a line: Inhibition of Wnt reporter activity in human SW480 cells by cell based assay. It counts as functional.
Assay [4] is described as follows: Inhibition of Wnt reporter activity in human HeLa cells by cell based assay.

SMILES strings stand for the structures. Starred links: 1 amine or outer side, 2 acyl side, 3 side chain; linkers in the order of their positions; H or OH if unused. Positions of bridges follow the written chain, without caps; N, C: chain ends. Non-standard residues stand in square brackets, D forms with d. Residues, ends and D or L forms follow the SMILES beside them. X1 = C(=C\[*:2])/CC[*:1]; βAla = NCCC(=O)O

On to `CCc1ccc(OCc2nnc(SC3CCCC3=O)n2C(C)c2ccccc2)cc1` (stereo not given), for which it took 24 µM to reach half-maximal inhibition at TCF4-CTNNB1 complex (IC50).
Turning to `COc1cc(OC)cc(N2CC(=O)N(CCCOC(C)C)CC(=O)N(C(C)c3ccc(O)cc3)CC(=O)N(C(C)c3ccc(O)cc3)CC(=O)N[C@H](C)C(=O)N(CCc3ccccc3Oc3ccccc3)CC2=O)c1` (stereo not given in full), the IC50 in assay [1] came out at 0.2 µM; in assay [2], 0.8 µM.
Take `CCOC(=O)C[C@@H](NC(=O)[C@@H](Cc1ccc2ccccc2c1)NC(=O)Cc1cc2cc(Cl)ccc2[nH]1)C(=O)N[C@H](CC(=O)OCC)C(=O)OC`: in assay [3], the IC50 was 29 µM.
`CC(C)C[C@@H]1NC(=O)[C@H](CC(C)C)NC(=O)[C@H](CO)NC(=O)[C@H](CC(=O)O)NC(=O)[C@@H]2CCCN2C(=O)[C@@H]2CCCN2C(=O)[C@H](C(C)C)NC(=O)[C@H](CC(=O)O)NC(=O)[C@H](CC(N)=O)NC(=O)[C@H](CCCNC(=N)N)NC(=O)[C@@H]2CS/C=C/CCSC[C@H](NC1=O)C(=O)N[C@@H](Cc1ccccc1)C(=O)NCCC(=O)NCCC(=O)N[C@@H](C(C)C)C(=O)N2` (cyclo(CF[βAla][βAla]VCRNDVPPDSLL); linker 1-6 via X1) gave an IC50 in assay [4] of 8 µM.

What is called IC50 is the point on the concentration scale where inhibition reaches its midpoint.

For the origin of these results see ChEMBL document CHEMBL5104134, “Targeting the interaction of β-catenin and TCF/LEF transcription factors to inhibit oncogenic Wnt signaling” (Bioorg Med Chem, 2022).
